Counter-ions that a name gives are not always drawn. Like-named read-outs stand apart in the source and are kept apart here.
Key:
[1] = tested on: lymphocytic leukemia P388/0; assay: Lymphocytic Leukemia P388/0 Test; assay type: in vivo, mouse (CD2-F1); design: LD20: unit: mg/kg; details: ip days 1, 5, 9; for LD20: doses on a mg/kg basis; for T/C × 100% (Excluding 30 Day Survivors): median survival time treated/control, at the optimal dose of the compound (Table I), active if ≥120%
Source text: (§1) Methods for evaluating the antitumor activity of these compounds are essentially those used in the Tumor Panel by the Developmental Therapeutics Program, Division of Cancer Treatment, National Cancer Institute, A. Goldin, et al., Methods in Cancer Research, Vol. XVI, p.165, Academic Press (1979). Some modifications, in dose level and schedule have been made to increase the testing efficiency.
(§2) CD2-F1 mice, of the same sex, weighing 20±3 g are used for this test. Control and test animals are injected intraperitoneally with a suspension of ~10^6 viable P388/0 tumor cells on day 0. In each test, several dose levels which bracket the LD20 of the compound are evaluated; each dose level group contains six animals. The test compounds are prepared either in physiologic saline containing 0.05% Tween 80 or distilled water containing 5% dextrose and are administered intraperitoneally on days 1, 5, and 9 relative to tumor implant. Doses are on a mg/kg basis according to individual animals' body weights. The day of death for each animal is recorded, the median identified for each group and the ratios of median survival time for treated (T)/control (C) Groups are calculated. The criterion for activity is T/C×100≥120%.

LD50 Tests = details: in vivo; IP single dose, CD-1 male mouse
Source text: |(IP single dose - CD-1 Male Mouse)

[2] = tested on: Nippostrongylus brasiliensis; assay: Anthelmintic screening against Nippostrongylus brasiliensis; assay type: cell-based
Source text: Anthelmintic testing against Nippostrongylus brasiliensis was done using methods outlined in D. C. Jenkins, R. Armitage, and T. S. Carrington, Zeitschrift for Parasitenkunde 63, 261-269 (1980)

Streptococcus pyogenes = assay: Antibacterial testing against Streptococcus pyogenes (CN10); assay type: cell-based; details: agar dilution
Source text: (§3) Antibacterial test against Mycoplasma smegmatis (S3264) and Streptococcus pyogenes (CN10) was done with slight modifications using standard agar dilution assays as outlined in Manual of Clinical Microbiology Second Ed., E. H. Lennette, E. H. Spaulding and J. P. Truant Eds., American Society for Microbiology, Washington, DC, 1974.

Herpes simplex 1/vero = Herpes simplex 1/vero plaque inhibition screen; assay type: cell-based; details: plaque inhibition screen
Source text: The column headings labeled Score, Toxicity, and Zone of Inhibition refer to the plaque inhibition screen while the IC50 heading to the plaque reduction screen.

[3] = Antibacterial screening against Mycoplasma smegmatis; assay type: cell-based
Source text: as §3

Candida albicans = assay: Antifungal testing against Candida albicans (CN 1863); assay type: cell-based, Candida albicans (CN1863); details: Wellcotest sensitivity test agar plus 7% lysed horse blood
Source text: Antifungal testing against Candida albicans (CN 1863) was done with slight modifications using a combination of broth and agar dilution assays as outlined in Laboratory Handbook of Medical Mycology, Chapter 6, pages 441-446, M. R. McGinnis, Academic Press, New York, NY, 1980
Medium: Wellcotest ® sensitivity test agar plus 7% lysed horse blood.

Lewis lung carcinoma = assay: Lewis Lung Carcinoma Test; assay type: in vivo, mouse (BD-F1); details: median survival, iv tumor cells; dosing days 1, 5, 9; dose: 3C 130, 4C 200 mg/kg; active if ≥140%
Source text: as §1
This tumor arose spontaneously in the lung of a C57B1/6 mouse and is maintained by subcutaneous passage in that strain. The solid tumor is excised aseptically and placed in sterile saline. Pieces of viable tumor tissue are minced finely with scissors and forced through a 200 mesh stainless steel screen to disaggregate the tumor cells into a suspension. 10^6 Viable cells are injected intravenously into the tail vein of BD-F1, mice of the same sex weighing 20±3 g. In each test, several dose levels which bracket the L20 for the compound are evaluated. Ten animals are included in each dose level grup, and twenty animals in the untreated control group. The test compounds are prepared and administered on days 1, 5, and 9 as in the P388/0 protocol. The day of death for each animal is recorded, the median identified for each group and the ratios of median survival time for treated (T)/control (C) groups are calculated. The criterion for activity is T/C×100≥140%.

M5076 sarcoma = assay: M5076 Sarcoma Test; assay type: in vivo, mouse (B6C3-F1); details: survival; 110 mg/kg; ip days 1, 5, 9; active if ≥125%
Source text: as §1
This sarcoma arose as a solid tumor in the ovary of a C57Bl/6 mouse and was subsequently converted to the ascitic form for intraperitoneal use. The protocol for this test is identical with that for P388/0. The B6C3-F1mouse strain is used and the criterion for activity is T/C×100≥125%.

[4] = tested on: lymphocytic leukemia L1210; assay: Lymphocytic Leukemia L1210 Test; assay type: in vivo, mouse (CD2-F1); details: median survival; ip days 1, 5, 9; dose: 3C 110, 4C 150 mg/kg; active if >125%
Source text: as §1
The protocol for this test is identical to that for P388/0, except that the number of L1210 cells implanted on day 0 is […]. The mouse CD2-F1 strain is used, and the criterion for activity is T/C×100 >125%.

Colon 38 carcinoma = assay: Colon 38 Carcinoma Test; assay type: in vivo, mouse (C57Bl/6); details: tumor weight, day 20; 150 mg/kg ip days 1, 5, 9; active if ≤42%
Source text: as §1
This chemically-induced tumor arose in a C57Bl/6 mouse and is maintained as a solid tumor in that mouse strain. The subcutaneously growing solid tumor is aseptically excised from passage mice and placed in sterile saline. The tumor is trimmed free of visible necrotic and connective tissue, then divided into 2-3 mm cubes. A cube is implanted subcutaneously in the ventral thoracic region with a sterile trochar on day 0. In each test several dose levels which bracket the LD20 for the compound are evaluated. Ten animals are included in each dose level group and thirty animals in the untreated control group. The test compounds are prepared either in physiologic saline containing 0.05% Tween 80 or distilled water containing 5% dextrose and are administered intraperitoneally on days 1, 5 and 9 after tumor implant. […] At day 20, the animals are sacrificed and the longest (L) and shortest (W) dimensions of each tumor measured with vernier calipers. Tumor weight is calculated from the formula [formula] […]

[5] = Lymphocytic Leukemia P388/0 Test; assay type: in vivo, mouse (CD2-F1); design: LD20: unit: mg/kg; details: mouse, in vivo; ip days 1, 5, 9; doses on a mg/kg basis; read-out: highest nontoxic dose where the LD20 was not determined (values in parentheses in LD20 column)
Source text: as §1, §2

[6] = immature - free living stages, read-out: MIC

| SMILES | LD20 [1] | T/C × 100% (Excluding 30 Day Survivors) [1] | LD50 (LD50 Tests) [mg/kg] | MIC [3] [µg/mL] | also measured |
| --- | --- | --- | --- | --- | --- |
| CSc1c2ccccc2c(CNC(C)(CO)CO)c2ccccc12.Cl [Example 3B, 2-methyl-2-(((10-methylthio-9-anthracenyl)methyl)amino)-1,3-propanediol hydrochloride] | 120 | +262% | 100 |  |  |
| Cc1c2ccccc2c(CNC(C)(CO)CO)c2ccccc12 [Example 7, 2-methyl-2-(((10-methyl-9-anthracenyl)methyl)amino)-1,3-propanediol hydrochloride.1/2H2 O] | 140 | +160% |  |  | MIC [2]: 50 µg/mL |
| COc1c2ccccc2c(CNC(C)(CO)CO)c2ccccc12.Cl [Example 13B, 2-(((10-Methoxy-9-anthracenyl)methyl)amino)-2-methyl-1,3-propanediol hydrochloride] | 120 | +220% |  | ≤ 10 | MIC (Streptococcus pyogenes): 100 µg/mL; Zone of Inhibition (Herpes simplex 1/vero): 40 |
| CC(CO)(CO)NCc1c2ccccc2cc2c(Cl)cccc12.Cl [Example 11B, 2-(((4-Chloro-9-anthracenyl)methyl)amino)-2-methyl-1,3-propanediol hydrochloride] | 200 | +215% |  | ≤ 10 | MIC (Streptococcus pyogenes): ≤ 10 µg/mL |
| CC(CO)(CO)NCc1c2ccccc2cc2ccccc12.Cl [Example 1, 2-((9-Anthracenylmethyl)amino)-2-methyl-1,3-propanediol hydrochloride] | 150 | +130% | 160 | < 5 | MIC [2, 6]: ≥ 50 µg/mL; MIC (Candida albicans): > 50 µg/mL |
| CSc1c2ccccc2c(CNC(C)(CO)CO)c2ccccc12 [Example 3C, 2-Methyl-2-(((10-methylthio-9-anthracenyl)methyl)amino)-1,3-propanediolmethanesulfonate] | 70 | +227% |  |  | T/C × 100% Excluding 60 day Survivors (Lewis lung carcinoma): +145%; T/C × 100% (M5076 sarcoma): +132%; T/C × 100% Excluding 30 day Survivors [4]: +194% |
| CC(CO)(CO)NCc1c2ccccc2c(CCCl)c2ccccc12 [Example 4C, 2-(((10-(2-Chloroethyl)-9-anthracenyl)methyl)amino)-2-methyl-1,3-propanediol methanesulfonate] | 130 | +218% |  |  | T/C × 100% Excluding 60 day Survivors (Lewis lung carcinoma): +154%; T/C × 100% Excluding 30 day Survivors [4]: +217%; T/C × 100% (Colon 38 carcinoma): 38% |
| CC(CO)(CO)NCc1c2ccccc2c(OCCO)c2ccccc12 [Example 25B, 2-(((10-(2-hydroxyethoxy)-9-anthracenyl)methyl)amino)-2-methyl-1,3-propanediol hydrochloride 1/2H2 O 1/10EtOH] | 67 | +300% | 110 |  |  |
| CC(CO)(CO)NCc1c2cccc(Cl)c2cc2c(Cl)cccc12.Cl [Example 10B, 2-(((4,5-dichloro-9-anthracenyl)methyl)amino)-2-methyl-1,3-propanediol hydrochloride] |  | +204% |  |  | MTD [5]: 450 mg/kg; Zone of Inhibition (Herpes simplex 1/vero): 32 |
| CC(CO)(CO)NCc1c2ccccc2c(Cl)c2ccccc12.Cl [Example 2A, 2-(((10-chloro-9-anthracenyl)methyl)amino)-2-methyl-1,3-propanediol hydrochloride] | 556 | +228% | 250 | 10 | MIC [2, 6]: ≥ 50 µg/mL |
